Five compounds from paper PMC4457840, “Differential Inhibition of Signal Peptide Peptidase Family Members by Established γ-Secretase Inhibitors” (PLoS ONE, 2015) can be followed below.

Entries after “also recorded” stand apart in the source; their conditions may differ. Numbered stars: 1 amine (or outer) side, 2 acyl side, 3 side chain; on linkers, the order of the positions; unused ones are H or OH. Square brackets hold non-standard residues; d marks the D form. Peptide text beside a SMILES is read from it. * marks the point of attachment. X1 = CC(N[*:1])C(=O)C(F)(F)C(=O)[*:2]; Boc = CC(C)(C)OC(=O)* Where only a bound is given, the exact number is not on record here.

Assay [1] deals with T1, SPPL2a.
T1 construct: endogenous SPPL2a cleavage of CD74 in a murine B-Cell line; host or cells: A20 mouse B lymphocyte cells
The assay can be described thus: Endogenous CD74 NTF P8 turnover in non-overexpressing A20 cells (Western blot, In-1 antibody). The assay is classed as cell-based, mouse. As to conditions: for stabilization of the CD74 8 kDa NTF P8: 25 μM, 16 hr; for dose response of P8 fragment stabilization (in words): different doses; for lowest concentration inhibiting P8 turnover: dose response. The method, then:
(§1) Untagged versions of all enzymes were also made and ligated into the pAG3 vector. Substrates (Fig 1) were designed as follows: FLAG-BRI2_1-81- Aβ1-25/K16A (FBA). The K16A mutation was incorporated to prevent potential α-secretase cleavage that would preclude ELISA based detection of the released COOH-terminal fragment. The substrate DNA was cloned into the expression vector pcDNA6. Constructs were confirmed by DNA sequencing. The overexpression of substrates was performed by transiently transfecting human embryonic kidney (HEK 293T) cells with or without SPP/SPPL vectors. Cells were grown in DMEM media supplemented with Hyclone 10% fetal bovine serum (GE, Logan, Utah, USA) and 1% penicillin/streptomycin (Life Technologies, Grand Island, NY, USA). Briefly, 2.7 μg DNA was applied to a 75% confluent 6 well plate (Corning, Tewksbury, MA, USA) using the polycation polyethylenimine (PEI) transfection method. Inhibitor testing experiments were conducted in 48 well plates with appropriately adjusted amounts of DNA and PEI and incubated 12–16 hours, after which the growth medium was replaced with fresh medium. DMSO (Sigma, St. Louis, MO, USA) and GSIs were added at the appropriate concentration. The GSIs, L685,458 and Compound W were purchased from Tocris (Tocris, Bristol, UK). (Z-LL)2 ketone, Compound E, DAPT, GSI II were purchased from Calbiochem (Merck Millipore, Billerica, MA, USA). LY-411,575 was synthesized by A. Fauq at the Mayo Clinic Chemical Core. Twenty-four hours later, the medium was collected for assay by ELISA and MS. A20 cells (TIB-208) (ATCC, Manassas, VA, USA) were cultured in RPMI-1640 medium (ATCC) supplied with 10% fetal bovine serum, 1% penicillin/streptomycin and 0.05 mM 2-mercaptoethanol (Life Technologies). At the density of 5x10^5 cells/ml, A20 cells were spun down at 1000 g for 2 min and resuspended in fresh medium supplied with DMSO or GSIs and incubated for 16 hr.
(§2) Sandwich ELISAs used for Aβ detection were performed as previously described. Briefly, Aβ and Aβ adducts with substrate TMD in conditioned media was captured with Ab5 antibody (human Aβ1–16 specific) and detected with horseradish peroxidase mAb 4G8 (Covance, Princeton, NJ, USA). Synthetic Aβ1–40 was used as standard. All ELISAs were developed with TMB substrate (KPL, Gaithersburg, Maryland, USA). Bis-Tris precast gels (Biorad, Hercules, CA, USA) were used for all SDS-PAGE. Monoclonal anti-FLAG M2 antibody (Sigma) and Aβ1–16 antibody 6E10 (Covance) were used for Western blotting. Antisera against SPPL2a, SPPL2b, hSPP and pSPP were generated as previously described and were used at dilution of 1:1000 for Western blotting. Anti-CD74 In-1 antibody (BD Bioscience, San Jose, CA, USA) was used for A20 cell lysate Western blotting at dilution of 1:1000.
Background: A western blot detects proteins with antibodies after separation by electrophoresis.

The target in assay [2] is T2, SPPL2b (Homo sapiens, UniProt Q8TCT7).
T2 construct: expressed in transfected cells; host or cells: HEK 293T
T2 sequence (Q8TCT7 26-592): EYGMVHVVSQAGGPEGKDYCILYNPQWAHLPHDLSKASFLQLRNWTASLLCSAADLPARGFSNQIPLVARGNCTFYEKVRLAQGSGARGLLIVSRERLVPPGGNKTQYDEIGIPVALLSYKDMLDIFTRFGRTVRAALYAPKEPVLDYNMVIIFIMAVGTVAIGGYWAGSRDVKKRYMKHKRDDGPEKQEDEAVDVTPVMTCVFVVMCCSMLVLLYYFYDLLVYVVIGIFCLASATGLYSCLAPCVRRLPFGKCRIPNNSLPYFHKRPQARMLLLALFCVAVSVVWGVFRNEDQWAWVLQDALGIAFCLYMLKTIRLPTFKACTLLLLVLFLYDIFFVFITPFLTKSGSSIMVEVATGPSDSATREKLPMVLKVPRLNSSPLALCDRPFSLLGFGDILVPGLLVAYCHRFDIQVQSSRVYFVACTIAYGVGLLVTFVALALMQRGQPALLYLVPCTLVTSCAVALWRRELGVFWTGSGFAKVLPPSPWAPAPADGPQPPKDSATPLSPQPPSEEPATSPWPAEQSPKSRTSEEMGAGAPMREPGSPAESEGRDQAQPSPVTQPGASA
The assay can be described thus: FBA/SPPL2b co-transfected HEK 293T cell cleavage assay (Aβ ELISA, Western blot, IP/MS). The assay is classed as cell-based. As to conditions: for inhibition of xAβ1-25/K16A secretion (in words) / inhibition at 25 µM: 25 μM, ELISA; for inhibition of FBA cleavage (10 kD ICD) by Western blot: Fig 3C upper panel; for IC50: HEK cells, 24 h, xAβ1-25/K16A by Aβ ELISA, mean ± standard error, read-out: IC50 on FBA/SPPL co-transfected cells; for rank order of inhibition: number in parenthesis in Table 3; for inhibition at 25 µM: DMSO = 100%, read-out: inhibition of the SPP/SPPLs.
Text: as §1, with “Expression constructs in pcDNA6 for COOH-terminal FLAG (DYKDDDDK) and strep (WSHPQFEK) tagged SPPL2a, SPPL2b, hSPP and pSPP were generated as previously described. Untagged” for “Untagged”
as §2
Immunoprecipitation and mass spectrometry of xAβ1–25 in conditioned media were performed as previously described. In this study, 10 ml conditioned media were used for each experiment. ICDs were immunoprecipitated with anti-FLAG M2 magnetic beads. Cells from 10 cm dished treated with DMSO or 20 μM LY-411,575 were used for each test.

On to `CC[C@H](C)[C@H](NC(=O)[C@@H](NC(=O)OC(C)(C)C)C(C)C)C(=O)NC(C)C(=O)C(F)(F)C(=O)N[C@H](C(=O)N[C@H](C(=O)OC)[C@@H](C)CC)C(C)C` (stereo partly drawn) [GSI II] (Boc-VI[X1]VI-OMe), for which, in assay [1], the “stabilization of the CD74 8 kDa NTF P8” value is on record as “greatly stabilized”, the “dose response of P8 fragment stabilization (in words)” value (from here on “dose response”) is given as “stabilized the P8 fragment in a dose dependent manner” and the “lowest concentration inhibiting P8 turnover” value worked out at 40 nM. For the same compound, in assay [2], the “inhibition of xAβ1-25/K16A secretion (in words)” value (from here on “inhibition … (in words)”) is on record as “efficiently inhibited; also recorded: largely inhibited”, the “inhibition of FBA cleavage (10 kD ICD) by Western blot” value (from here on “inhibition of FBA cleavage”) is reported as “greatly inhibit”, the IC50 came to 3.6 ± 0.121 µM and the “rank order of inhibition” value is 3.

With `C[C@H](NC(=O)[C@@H](O)c1cc(F)cc(F)c1)C(=O)N[C@@H]1C(=O)N(C)c2ccccc2-c2ccccc21` [LY-411,575], in assay [1], the “stabilization of the CD74 8 kDa NTF P8” value is on record as “greatly stabilized”, the “dose response” value is “stabilized the P8 fragment in a dose dependent manner” and the “lowest concentration inhibiting P8 turnover” value is recorded as 40 nM. Further, the “cleavage products in conditioned media by IP/MS” value in assay [2] (20 μM) was “No major cleavage product was detected”. In assay [2], the “inhibition … (in words)” value is on record as “largely inhibited”, the “inhibition of FBA cleavage” value is “greatly inhibit”, the IC50 came to 5.5 ± 0.122 µM and the “rank order of inhibition” value came to 4. Also, the inhibition at 25 µM in assay [2] (HEK-293T) was greater than 90%.

For `C[C@H](NC(=O)Cc1cc(F)cc(F)c1)C(=O)N[C@H]1N=C(c2ccccc2)c2ccccc2N(C)C1=O` [Compound E], the “stabilization of the CD74 8 kDa NTF P8” value in assay [1] is “did not show significant effects”. In assay [2], the “inhibition … (in words)” value was “did not show inhibition” and the “inhibition of FBA cleavage” value is given as “negligible effect”.

With `CC(C)C[C@H](NC(=O)OCc1ccccc1)C(=O)N[C@@H](CC(C)C)C(=O)NCC(=O)CNC(=O)[C@H](CC(C)C)NC(=O)[C@H](CC(C)C)NC(=O)OCc1ccccc1` [(Z-LL)2 ketone], in assay [1], the “stabilization of the CD74 8 kDa NTF P8” value is listed as “greatly stabilized”, the “dose response” value is reported as “stabilized the P8 fragment in a dose dependent manner” and the “lowest concentration inhibiting P8 turnover” value stood at 40 nM. In assay [2] (10 μM, Aβ ELISA, Fig 1D), the “FBA cleavage by co-transfected SPPL (in words)” value is listed as “largely inhibited”. Also, the “generation of the SPP/SPPL dependent 10 kDa ICD” value in assay [2] (10 μM, Western blot anti-FLAG M2) is given as “significantly reduced”. Further, in assay [2], the “inhibition … (in words)” value is recorded as “largely inhibited”, the “inhibition of FBA cleavage” value was “greatly inhibit”, the IC50 was found to be 2.14 ± 0.143 µM and the “rank order of inhibition” value stood at 2. In assay [2] (HEK-293T, 10 μM, overnight, Aβ ELISA), this compound yielded an inhibition at 10 µM greater than 75%. The inhibition at 25 µM in assay [2] (HEK-293T) was greater than 90%.

Consider `C[C@H](NC(=O)Cc1cc(F)cc(F)c1)C(=O)NC(C(=O)OC(C)(C)C)c1ccccc1` (stereo partly drawn) [DAPT], for which the “stabilization of the CD74 8 kDa NTF P8” value in assay [1] is given as “no inhibition”. In assay [2], the “inhibition … (in words)” value was “does not inhibit” and the “inhibition of FBA cleavage” value is on record as “slightly reduce”.
